# Data reported in patent publication US20250262222A1, “HETEROCYCLIC COMPOUNDS, COMPOSITIONS THEREOF, AND METHODS OF TREATMENT THEREWITH” (BeiGene Switzerland GmbH, priority 2022, published 2025).
# Experiments:
# [1] = tested on: pERK1/2(THR202/TYR204) level in AsPC-1 cell line; assay: KRAS G12D pERK assay; assay type: cell-based; settings: Homo sapiens, ASPC1, 2 h, AsPC-1 cells, 2 h compound treatment, HTRF
# In short: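 AsPC-1 (KRAS G12D) cells, 30000/well, seeded overnight, then treated 2 h with a 10-point series at 0 to 10 μM final. Lysate pERK1/2 (Thr202/Tyr204) detected by HTRF after overnight antibody incubation at room temperature; IC50 from percent inhibition versus log concentration.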
# Mouse and rat PK study = assay type: in vivo, male CD-1 mice or SD-JVC rats; settings: compared to dibasic G12D inhibitors (e.g., Example 17)
# Procedure: The pharmacokinetics of compounds were evaluated in male CD-1 mice or SD-JVC rats via intravenous and oral administration. For intravenous administration study, test compounds were dissolved in DMA:30% Solutol HS 15(w/v): Saline (20:20:60, by volume) and injected with a 1 mg/kg dose via tail vein. For oral administration study, test compounds were dissolved in 0.5% MC or PEG400/Phosal 50 PG/EtOH (30/60/10, by volume) and administrated to mice at 10 mg/kg or 30 mg/kg by gavage. Animals will be grouped and treated according to body weight. At the time points after dosing (5 (IV only), 15, and 30 min and 1, 2, 4, 8 and 24 h after administration), Rat blood samples will be collected from JVC, Mice will be anesthetized by isoflurane and blood samples will be collected from orbital bleeding. Blood samples will be collected into 1.5 mL EDTA.K2 coated EP tube. Approximately 50 μL blood (Mouse) and 150 μL blood (Rat) were collected at each time point and placed on ice, then centrifuge at 5600 rpm 7 min at 4° C. to obtain plasma. Plasma will be transferred into new tube and stored at −20° C. or dry ice temporary. The samples will be stored at −80° C. until ex vivo PK assay.
# Plasma concentrations were determined via the following sample processing method and measurement conditions. An aliquot of 10 μL sample was added with 200 μL IS (Terfenadine, 5 ng/mL) in ACN. […]
# [2] = Gastrointestinal accumulation and toxicity, mono-basic vs dibasic G12D inhibitors (method not described); assay type: in vivo; settings: compared to dibasic G12D inhibitors (e.g., Example 17)
# [3] = tested on: ERK1/2 phosphorylation in SW1990 tumors; assay: SW1990 PD studies; assay type: in vivo, Female NCG mice; settings: oral administration
# Procedure: Female NCG mice were subcutaneously implanted with 5×10^6 SW1990 cells per 200 μL PBS/matrigel in the right flank. After inoculation, when tumors reached a mean volume of approximately 350-450 mm^3 in size, mice were randomized into treatment groups. Randomized mice would receive a single dose of vehicle consisting of 0.5% MC or test compounds at various dose (e.g. 30, 50, or 100 mg/kg) by oral administration. Plasma was collected at 0.5, 2, 4, and 7 hours, and tumor was collected at 7 hours after dosing to determine exposure levels. Tumor fragments were snap frozen in homogenization tubes with liquid nitrogen and homogenized with T-PER Tissue Protein Extraction Buffer with protease and phosphatase inhibitors added fresh before use. Tumor lysates were then analyzed for ERK1/2 phosphorylation.
smiles,measurement,setting,value
"Nc1cc(Cl)c(C(F)(F)F)c(-c2nc3c4c(nc(OCC56COC(C5)C6)nc4c2F)N2C[C@H]4CC[C@H](N4)C2CCO3)c1 (stereo partly drawn) [Example 23, 3-((7S,10R)-13-((2-oxabicyclo[2.1.1]hexan-4-yl)methoxy)-1-fluoro-5,6,6a,7,8,9,10,11-octahydro-4-oxa-3,11a,12,14,15-pentaaza-7,10-methanocyclohepta[4,5]cycloocta[1,2,3-de]naphthalen-2-yl)-5-chloro-4-(trifluoromethyl)aniline]",IC50,[1],0.114 µM
same,oral exposure,Mouse and rat PK study,enhanced oral exposure
same,gastrointestinal accumulation,[2],reduced gastrointestinal accumulation
same,toxicity,[2],reduced toxicity
"Cc1cc(N)cc(-c2nc3c4c(nc(OCC56COC(C(F)F)(C5)C6)nc4c2F)N2C[C@H]4CC[C@H](N4)[C@H]2CCO3)c1C(F)(F)F [Example 29, 3-((6aR,7S,10R)-13-((1-(difluoromethyl)-2-oxabicyclo[2.1.1]hexan-4-yl)methoxy)-1-fluoro-5,6,6a,7,8,9,10,11-octahydro-4-oxa-3,11a,12,14,15-pentaaza-7,10-methanocyclohepta[4,5]cyclo-octa[1,2,3-de]naphthalen-2-yl)-5-methyl-4-(trifluoromethyl)aniline]",IC50,[1],0.092 µM
same,oral pharmacodynamic effects,[3],enhanced oral pharmacodynamic effects
"Nc1cc(Cl)c(C(F)(F)F)c(-c2nc3c4c(nc(OCC5(C(F)F)COC5)nc4c2F)N2C[C@H]4CC[C@H](N4)[C@H]2CCO3)c1 [Example 32, 3-chloro-5-((6aR,7S,10R)-13-((3-(difluoromethyl)oxetan-3-yl)methoxy)-1-fluoro-5,6,6a,7,8,9,10,11-octahydro-4-oxa-3,11a,12,14,15-pentaaza-7,10-methanocyclohepta[4,5]cyclo-octa[1,2,3-de]naphthalen-2-yl)-4-(trifluoromethyl)aniline]",IC50,[1],0.117 µM
same,oral pharmacodynamic effects,[3],enhanced oral pharmacodynamic effects
"Nc1cc(Cl)c(C(F)(F)F)c(-c2nc3c4c(nc(OCC56COC(C(F)F)(C5)C6)nc4c2F)N2C[C@H]4CC[C@H](N4)[C@H]2CCO3)c1 [Example 35, 3-chloro-5-((6aR,7S,10R)-13-((1-(difluoromethyl)-2-oxabicyclo[2.1.1]hexan-4-yl)methoxy)-1-fluoro-5,6,6a,7,8,9,10,11-octahydro-4-oxa-3,11a,12,14,15-pentaaza-7,10-methanocyclohepta[4,5]cyclo-octa[1,2,3-de]naphthalen-2-yl)-4-(trifluoromethyl)aniline]",IC50,[1],0.061 µM
same,oral pharmacodynamic effects,[3],enhanced oral pharmacodynamic effects
"Nc1cc(Cl)c(C(F)(F)F)c(-c2nc3c4c(nc(OCC56CCC(CC5)OC6)nc4c2F)N2C[C@H]4CC[C@H](N4)[C@H]2CCO3)c1 [Example 40, 3-((6aR,7S,10R)-13-((2-oxabicyclo[2.2.2]octan-4-yl)methoxy)-1-fluoro-5,6,6a,7,8,9,10,11-octahydro-4-oxa-3,11a,12,14,15-pentaaza-7,10-methanocyclohepta[4,5]cyclo-octa[1,2,3-de]naphthalen-2-yl)-5-chloro-4-(trifluoromethyl)aniline]",IC50,[1],0.303 µM
same,oral pharmacodynamic effects,[3],enhanced oral pharmacodynamic effects
"Nc1cc(Cl)c(C(F)(F)F)c(-c2nc3c4c(nc(OCC56CCC(C5)OC6)nc4c2F)N2C[C@H]4CC[C@H](N4)[C@H]2CCO3)c1 [Example 41, 3-((6aR,7S,10R)-13-((2-oxabicyclo[2.2.1]heptan-4-yl)methoxy)-1-fluoro-5,6,6a,7,8,9,10,11-octahydro-4-oxa-3,11a,12,14,15-pentaaza-7,10-methanocyclohepta[4,5]cyclo-octa[1,2,3-de]naphthalen-2-yl)-5-chloro-4-(trifluoromethyl)aniline]",IC50,[1],0.112 µM
same,oral pharmacodynamic effects,[3],enhanced oral pharmacodynamic effects
